The source made the active and inactive calls.

These results are taken from ChEMBL document CHEMBL1201862, “PubChem BioAssay data set” (2004).

Common to all, as to format: functional
Experiment [1] concerns the target T1, Replicative DNA helicase DnaB (Mycobacterium tuberculosis, UniProt P9WMR3).
T1 sequence (P9WMR3 whole entry): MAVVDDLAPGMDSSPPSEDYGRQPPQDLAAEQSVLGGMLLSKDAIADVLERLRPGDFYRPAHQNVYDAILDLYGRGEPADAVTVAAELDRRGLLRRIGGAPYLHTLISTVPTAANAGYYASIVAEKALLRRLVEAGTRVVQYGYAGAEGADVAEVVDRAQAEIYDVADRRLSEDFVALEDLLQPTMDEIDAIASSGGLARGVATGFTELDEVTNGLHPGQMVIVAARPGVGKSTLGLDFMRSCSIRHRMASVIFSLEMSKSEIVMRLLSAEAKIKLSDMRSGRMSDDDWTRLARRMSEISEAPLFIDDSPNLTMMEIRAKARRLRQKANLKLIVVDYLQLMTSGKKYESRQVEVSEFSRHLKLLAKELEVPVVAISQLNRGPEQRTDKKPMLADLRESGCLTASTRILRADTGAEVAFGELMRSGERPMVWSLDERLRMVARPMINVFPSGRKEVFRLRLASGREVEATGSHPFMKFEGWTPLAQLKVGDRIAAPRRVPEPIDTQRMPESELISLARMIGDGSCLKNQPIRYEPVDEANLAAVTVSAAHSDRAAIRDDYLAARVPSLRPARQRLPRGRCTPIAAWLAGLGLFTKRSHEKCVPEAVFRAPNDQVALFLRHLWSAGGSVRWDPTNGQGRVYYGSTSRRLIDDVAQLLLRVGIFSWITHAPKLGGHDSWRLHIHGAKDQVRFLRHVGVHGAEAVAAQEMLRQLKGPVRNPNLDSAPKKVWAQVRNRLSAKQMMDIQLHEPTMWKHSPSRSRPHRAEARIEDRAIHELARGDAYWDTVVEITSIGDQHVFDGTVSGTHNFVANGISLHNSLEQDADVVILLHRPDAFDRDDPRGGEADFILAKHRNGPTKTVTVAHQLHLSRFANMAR
The experiment can be described thus: DnaB intein splicing inhibitors, dose response, biochemical, cell-free fluorescence (AID 449749).

The next experiment deals with T2, Protein RecA (Mycobacterium tuberculosis, UniProt P9WHJ3).
T2 sequence (P9WHJ3 whole entry): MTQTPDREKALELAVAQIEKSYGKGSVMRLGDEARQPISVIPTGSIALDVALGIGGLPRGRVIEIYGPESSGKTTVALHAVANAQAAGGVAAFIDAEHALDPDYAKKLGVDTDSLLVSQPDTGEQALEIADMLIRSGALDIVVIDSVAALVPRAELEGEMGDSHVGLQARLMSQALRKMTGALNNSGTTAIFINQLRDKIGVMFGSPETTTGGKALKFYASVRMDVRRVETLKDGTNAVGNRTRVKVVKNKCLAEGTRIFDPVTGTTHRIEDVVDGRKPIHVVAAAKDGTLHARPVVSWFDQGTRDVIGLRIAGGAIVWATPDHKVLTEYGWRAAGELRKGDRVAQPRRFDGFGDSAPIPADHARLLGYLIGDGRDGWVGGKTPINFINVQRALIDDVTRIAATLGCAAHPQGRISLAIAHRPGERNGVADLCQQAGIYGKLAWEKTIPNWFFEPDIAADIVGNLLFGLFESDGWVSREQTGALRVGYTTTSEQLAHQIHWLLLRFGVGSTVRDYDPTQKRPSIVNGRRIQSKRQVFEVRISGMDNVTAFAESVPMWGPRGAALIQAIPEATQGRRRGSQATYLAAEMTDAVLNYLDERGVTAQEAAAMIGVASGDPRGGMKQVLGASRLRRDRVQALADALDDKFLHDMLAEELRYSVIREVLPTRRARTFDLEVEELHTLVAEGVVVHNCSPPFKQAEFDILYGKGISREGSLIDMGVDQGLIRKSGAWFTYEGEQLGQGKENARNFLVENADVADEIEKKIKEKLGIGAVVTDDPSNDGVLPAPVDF
The experiment can be described thus: Fluorescence Cell-Free Homogeneous Dose Retest to Identify Inhibitors of RecA-Intein Splicing Activity. [Related pubchem assays (depositor defined):AID2097, AID2223, AID489010, AID492950].

Experiment [2] addresses T3, Apoptotic protease-activating factor 1 (Homo sapiens, UniProt O14727).
T3 sequence (O14727 whole entry): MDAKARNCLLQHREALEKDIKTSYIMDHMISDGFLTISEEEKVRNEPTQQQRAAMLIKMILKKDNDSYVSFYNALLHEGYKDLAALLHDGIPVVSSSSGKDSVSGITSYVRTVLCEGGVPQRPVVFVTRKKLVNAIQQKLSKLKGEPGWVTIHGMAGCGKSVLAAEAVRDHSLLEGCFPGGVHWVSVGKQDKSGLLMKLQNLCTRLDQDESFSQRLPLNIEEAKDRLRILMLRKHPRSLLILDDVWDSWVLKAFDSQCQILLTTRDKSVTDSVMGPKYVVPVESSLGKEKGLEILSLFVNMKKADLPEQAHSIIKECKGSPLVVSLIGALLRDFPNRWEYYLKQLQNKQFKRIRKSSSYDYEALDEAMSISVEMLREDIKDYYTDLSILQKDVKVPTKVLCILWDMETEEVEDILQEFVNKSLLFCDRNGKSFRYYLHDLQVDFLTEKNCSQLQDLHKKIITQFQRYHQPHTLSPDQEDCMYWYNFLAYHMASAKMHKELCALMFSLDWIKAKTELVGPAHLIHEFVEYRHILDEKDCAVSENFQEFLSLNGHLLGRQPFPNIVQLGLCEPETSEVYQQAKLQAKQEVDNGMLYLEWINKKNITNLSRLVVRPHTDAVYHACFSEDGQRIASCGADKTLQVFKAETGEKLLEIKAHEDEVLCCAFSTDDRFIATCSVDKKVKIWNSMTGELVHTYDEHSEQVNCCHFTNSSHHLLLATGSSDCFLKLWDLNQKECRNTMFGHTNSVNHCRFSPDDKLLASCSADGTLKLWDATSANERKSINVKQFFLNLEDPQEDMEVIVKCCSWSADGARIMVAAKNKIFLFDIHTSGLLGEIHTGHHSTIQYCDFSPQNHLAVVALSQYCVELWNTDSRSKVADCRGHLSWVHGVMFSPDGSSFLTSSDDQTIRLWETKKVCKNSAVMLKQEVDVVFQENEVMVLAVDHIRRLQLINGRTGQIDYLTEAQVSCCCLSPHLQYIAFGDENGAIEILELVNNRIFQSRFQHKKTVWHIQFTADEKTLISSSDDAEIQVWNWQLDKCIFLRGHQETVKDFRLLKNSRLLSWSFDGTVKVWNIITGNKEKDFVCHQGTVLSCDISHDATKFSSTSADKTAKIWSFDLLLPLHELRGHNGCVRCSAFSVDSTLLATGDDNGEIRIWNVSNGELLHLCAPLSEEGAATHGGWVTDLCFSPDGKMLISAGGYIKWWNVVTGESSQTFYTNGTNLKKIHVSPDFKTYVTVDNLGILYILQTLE

For orientation: AC50 means the midpoint of the concentration-response curve, whichever way the signal moves. As a reminder, the EC50 is the concentration at which the effect is half-maximal. Turning to `COC(=O)C[C@]1(C(=O)OC)CN(C#N)N(c2ccc(Cl)cc2)C12c1ccccc1-c1ccccc12`, the AC50 in experiment [1] was 1830 nM (active). Further, on Protein RecA, the EC50 is 1770 nM (active).
Usually IC50 stands for the concentration that gives 50% inhibition. As for `CCCCn1c(NC(=O)c2ccco2)c(C(=O)OCC)c2nc3ccccc3nc21`, the half-inhibitory concentration (IC50) in experiment [2] was 13000 nM (active).
`Cc1ccccc1NC1=C/C(=N\S(=O)(=O)c2ccc(C(=O)O)cc2)c2ccccc2C1=O`: in experiment [1], the AC50 was 105000 nM (active). The IC50 in experiment [2] is 1590 nM (active). Also, the EC50 on Protein RecA is 3670 nM (active).
The corresponding values for `Cc1ccc(NC2=C/C(=N/S(=O)(=O)c3cccs3)c3ccccc3C2=O)cc1` are 301 nM (active), 453 nM (active) and 119 nM (active).
